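Values below derive from 48-hour exposures of cells grown in 96-well plates, with endpoints linearly interpolated between the two concentrations bracketing the appropriate inhibition level. Abbreviation: GI50, concentration required for 50% inhibition of growth.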 Calls of active or inactive are those of the source. Rule as the data show it: active = GI50 up to about 1.1 µM and inactive = higher. Starred links: 1 amine or outer side, 2 acyl side, 3 side chain; linkers in the order of their positions; H or OH if unused. Non-standard residues stand in square brackets, D forms with d. Residues, ends and D or L forms follow the SMILES beside them. ξ: configuration not given here. X24 = O=C(C(CC(O)CO)O[*:1])[*:2]; Ile(3ξ) = CCC(C)[C@H](N)C(=O)O; NMeV = CN[C@H](C(=O)O)C(C)C; NMeA = CN[C@@H](C)C(=O)O; βAla = NCCC(=O)O

Among the test systems are M14; UO-31; A549; HT-29; 786-0; HCT-116; RPMI-8226; SF-539; EKVX; KM12; HCC 2998; HCT-15; NCI-H460; OVCAR-3.
Common to all, as to assay: NCI-60 cell line screen, 48 h

Consider `O=C(Cc1ccc([N+](=O)[O-])c([N+](=O)[O-])c1CC(=O)C(=O)Nc1cc(Cl)ccc1Cl)C(=O)Nc1cc(Cl)ccc1Cl`, for which the GI50 in the experiment on M14, in the experiment with UO-31, with A549, in the experiment on HT-29, with 786-0 and with HCT-116 was > 100 µM (inactive) in each case. Besides, the GI50 is 28 µM (inactive) in the experiment with RPMI-8226; > 100 µM (inactive) in the experiment on SF-539; > 100 µM (inactive) with EKVX; > 100 µM (inactive) in the experiment with KM12; > 100 µM (inactive) in the experiment on HCC 2998; 21.7 µM with HCT-15. The GI50 in the experiment with NCI-H460 was 72.6 µM (inactive); in the experiment with OVCAR-3, > 100 µM (inactive).

On to `COc1cc(C2C(C(=O)O)=C(COC(C)=O)Oc3cc4c(cc32)OCO4)cc(OC)c1OC(C)=O` (configuration not stated), for which the GI50 with M14, with UO-31, with A549, in the experiment with HT-29, in the experiment on 786-0 and in the experiment with HCT-116 was > 100 µM (inactive) throughout. For the same compound, the GI50 in the experiment on RPMI-8226 is > 100 µM (inactive); in the experiment on EKVX, > 100 µM (inactive); in the experiment on HCT-15, over 100 µM; with NCI-H460 it was > 100 µM (inactive); with OVCAR-3 it was > 100 µM (inactive).

Regarding `CCCCCCCC(=O)OCC(COC(=O)C(C)(C)C)OC(=O)Cc1ccccc1` (configuration not stated), the GI50 in the experiment on M14, in the experiment with UO-31, in the experiment with A549, in the experiment on 786-0, in the experiment on HCT-116 and in the experiment with RPMI-8226 was > 100 µM (inactive) in each case. In addition, the GI50 in the experiment with HCC 2998 was > 100 µM (inactive); in the experiment on HCT-15, over 100 µM; in the experiment on NCI-H460 it was > 100 µM (inactive); in the experiment on OVCAR-3 it was 58.3 µM (inactive).

As to `CCCCCCCCOCC(O)COC(C)C` (configuration not stated), the GI50 in the experiment with M14 is 56.4 µM (inactive); with UO-31, 41.3 µM (inactive); in the experiment on A549, 41.6 µM (inactive); with HT-29, 50.7 µM (inactive); in the experiment on 786-0 it was 45.7 µM (inactive); with HCT-116, 53.1 µM (inactive). In addition, the GI50 is 22.8 µM (inactive) with RPMI-8226; 26.6 µM (inactive) in the experiment with HCC 2998; 27.4 µM in the experiment with HCT-15; 42.6 µM (inactive) in the experiment with NCI-H460; 16.2 µM (inactive) with OVCAR-3.

Take `CCC(C)[C@@H]1NC(=O)[C@@H]2CCCN2C(=O)C(CC(O)CO)OC(=O)CCNC(=O)[C@H](C)N(C)C(=O)[C@H](C(C)C)N(C)C1=O` (some centres not stated) (cyclo([Ile(3ξ)][NMeV][NMeA][βAla][X24]P)): the GI50 in the experiment with M14, in the experiment on UO-31, in the experiment on A549, in the experiment with HT-29, in the experiment on 786-0 and with HCT-116 was > 100 µM (inactive) each time. Further, the GI50 was > 100 µM (inactive) in the experiment on RPMI-8226; > 100 µM (inactive) in the experiment on SF-539; > 100 µM (inactive) in the experiment with KM12; over 100 µM in the experiment on HCT-15; > 100 µM (inactive) in the experiment on NCI-H460; > 100 µM (inactive) in the experiment on OVCAR-3.

Turning to `CC(=O)O[C@H]1CC[C@@]2(C)C(=CC[C@@H]3C2CC[C@]2(C)Nc4c(cnn4-c4ccccc4)CC32)C1` (some centres not stated), the GI50 in the experiment with M14 is 46.1 µM (inactive); in the experiment on UO-31 it was 27.1 µM (inactive); in the experiment with A549 it was 23.7 µM (inactive); in the experiment on HT-29, 4.82 µM (inactive); in the experiment with 786-0, 4.73 µM (inactive); in the experiment with HCT-116 it was 24.4 µM (inactive). Also, the GI50 in the experiment with RPMI-8226 is 2.09 µM (inactive); in the experiment on SF-539 it was 2.51 µM (inactive); in the experiment on EKVX, 44.6 µM (inactive); with KM12 it was 11.9 µM (inactive); in the experiment with HCC 2998, 16 µM (inactive); in the experiment with HCT-15, 10.4 µM. Also, the figures for the GI50 in the experiment with NCI-H460 and in the experiment with OVCAR-3 were 4.97 µM (inactive) and 48.2 µM (inactive), respectively.

(Values after ChEMBL document CHEMBL1201862, “PubChem BioAssay data set” (2004).)
